US20200078468A1, “NEUROTENSIN RECEPTOR BINDING CONJUGATES AND FORMULATIONS THEREOF” (priority 2016, published 2020)
Read-outs that look alike come from different tables or passages of the source. Numbered stars: 1 amine (or outer) side, 2 acyl side, 3 side chain; on linkers, the order of the positions; unused ones are H or OH. Bridge positions count the residues as written; N and C are the ends. Square brackets hold non-standard residues; d marks the D form. Peptide text beside a SMILES is read from it. I, II: the chains in the order shown. * marks the point of attachment. X5 = CC(C)C[C@H](NC(=O)[C@H](Cc1ccccc1)NC(=O)CCCCCN1C(=O)CC(*)C1=O)B1O[C@@H]2[C@@H]3C[C@H](C[C@]2(C)O1)C3(C)C; SN38(20-O) = CCc1c2c(nc3ccc(O)cc13)-c1cc3c(c(=O)n1C2)COC(=O)[C@@]3(CC)O*; Hexanoyl(6-succinimido-3yl) = O=C1CC([*:1])C(=O)N1CCCCCC(=O)[*:2]; NMeR = CN[C@@H](CCCNC(=N)N)C(=O)O; Pen = CC(C)(S)[C@H](N)C(=O)O; Tle = CC(C)(C)[C@H](N)C(=O)O

System: SW48 (human colon cancer cells)
Assay: inhibition of SW48 cell proliferation (CellTiter Glo)
Type: cell-based
Details: 72 hrs, read-out: SW-48 proliferation IC50
Experimental: Conjugates were assessed in an in vitro assay evaluating inhibition of cell proliferation. SW48 (human colon cancer cells, ATCC®), cells were plated in 96 well, flat-bottomed plates (Costar) at a concentration of 5,000 cells/well. Cells were then incubated at 37° C. with 5% CO2 for 24 hrs. After 24 hrs, cells were treated with 0.01% DMSO or compound. Compounds were added at a starting dose of 10 μM and three fold serial dilutions were done for a total often points. Following compound addition, cells were incubated at 37° C. with 5% CO2 for 72 hrs. Proliferation was measured by CellTiter Glo reagent using the standard protocol (Promega) and a Glomax multi+detection system (Promega). Percent proliferation inhibition was calculated using the following formula: % inhibition=(control−treatment)/control*100. Control is defined as vehicle alone. IC50 curves were generated using the nonlinear regression analysis (four parameter) with GraphPad Prism 6.
Conjugates are assessed for receptor-dependent cytotoxicity by the difference between an NTSR1-targeting conjugate, and the corresponding conjugate with the same linker moiety and active agent where the NTSR1-targeting domain has been scrambled.

CC[C@H](C)[C@@H]([C@@H](CC(=O)N1CCC[C@H]1[C@H](OC)[C@@H](C)C(=O)N[C@H](C)[C@@H](O)c1ccccc1)OC)N(C)C(=O)[C@@H](NC(=O)[C@H](C(C)C)N(C)C(=O)OCc1ccc(NC(=O)[C@H](CCCNC(N)=O)NC(=O)[C@@H](NC(=O)CCCCCN2C(=O)CC(SCCC(=O)NCCOCCOCCC(=O)NCCCC[C@H](NC(C)=O)C(=O)N3CCC[C@H]3C(=O)N(C)[C@@H](CCCNC(=N)N)C(=O)N[C@@H](CCCNC(=N)N)C(=O)N3CCC[C@H]3C(=O)N[C@@H](Cc3ccc(O)cc3)C(=O)N[C@H](C(=O)N[C@@H](CC(C)C)C(=O)O)C(C)(C)C)C2=O)C(C)C)cc1)C(C)C (some centres unmarked) [Compound 60]
IC50 (NTSR1 targeted compound): 44.6 nM

CC(=O)N[C@H](C(=O)N1CCC[C@H]1C(=O)N[C@@H](CCCNC(=N)N)C(=O)N[C@@H](CCCNC(=N)N)C(=O)N1CCC[C@H]1C(=O)N[C@@H](Cc1ccc(O)cc1)C(=O)N[C@H](C(=O)N[C@@H](CC(C)C)C(=O)O)C(C)(C)C)C(C)(C)SC1CC(=O)N(CCCCCC(=O)N[C@@H](Cc2ccccc2)C(=O)N[C@@H](CC(C)C)B2O[C@@H]3[C@@H]4C[C@H](C[C@]3(C)O2)C4(C)C)C1=O (stereo partly drawn) [Compound 1] (Ac-[Pen](X5)PRRPY[Tle]L-OH)
IC50 (NTSR1 targeted compound): > 10000 nM

COc1cc2cc(c1Cl)N(C)C(=O)C[C@H](OC(=O)[C@H](C)N(C)C(=O)CCSC1CC(=O)N(CCCNC(=O)CNC(=O)[C@H](CC(C)C)NC(=O)[C@H](Cc3ccccc3)NC(=O)CNC(=O)CCCCCN3C(=O)CC(SCCC(=O)NCCOCCOCCOCCOCCOCCOCCOCCOCCC(=O)NCCCC[C@H](NC(C)=O)C(=O)N4CCC[C@H]4C(=O)N[C@@H](CC(C)C)C(=O)N4CCC[C@H]4C(=O)N(C)[C@@H](CCCNC(=N)N)C(=O)N[C@H](C(=O)N[C@@H](CCCNC(=N)N)C(=O)N[C@@H](Cc4ccc(O)cc4)C(=O)O)C(C)(C)C)C3=O)C1=O)[C@]1(C)O[C@H]1[C@H](C)[C@@H]1C[C@@](O)(NC(=O)O1)[C@H](OC)/C=C/C=C(\C)C2 (some centres unmarked) [Compound 85]
IC50 (NTSR1 scrambled compound): 59.5 nM

CC[C@H](C)[C@@H]([C@@H](CC(=O)N1CCC[C@H]1[C@H](OC)[C@@H](C)C(=O)N[C@H](C)[C@@H](O)c1ccccc1)OC)N(C)C(=O)[C@@H](NC(=O)[C@H](C(C)C)N(C)C(=O)OCc1ccc(NC(=O)[C@H](CCCNC(N)=O)NC(=O)[C@@H](NC(=O)CCCCCN2C(=O)CC(SCCC(=O)NCCOCCOCCOCCOCCOCCOCCOCCOCCC(=O)NCCCC[C@H](NC(C)=O)C(=O)N3CCC[C@H]3C(=O)N(C)[C@@H](CCCNC(=N)N)C(=O)N[C@@H](CCCNC(=N)N)C(=O)N3CCC[C@H]3C(=O)N[C@@H](Cc3ccc(O)cc3)C(=O)N[C@H](C(=O)N[C@@H](CC(C)C)C(=O)O)C(C)(C)C)C2=O)C(C)C)cc1)C(C)C (some centres unmarked) [Compound 62]
IC50 (NTSR1 targeted compound): 50.1 nM

CC[C@H](C)[C@@H]([C@@H](CC(=O)N1CCC[C@H]1[C@H](OC)[C@@H](C)C(=O)N[C@H](C)[C@@H](O)c1ccccc1)OC)N(C)C(=O)[C@@H](NC(=O)[C@H](C(C)C)N(C)C(=O)OCc1ccc(NC(=O)[C@H](CCCNC(N)=O)NC(=O)[C@@H](NC(=O)CCCCCN2C(=O)CC(SCCC(=O)NCCOCCOCCC(=O)NCCCC[C@H](NC(C)=O)C(=O)N3CCC[C@H]3C(=O)N[C@@H](CC(C)C)C(=O)N3CCC[C@H]3C(=O)N(C)[C@@H](CCCNC(=N)N)C(=O)N[C@H](C(=O)N[C@@H](CCCNC(=N)N)C(=O)N[C@@H](Cc3ccc(O)cc3)C(=O)O)C(C)(C)C)C2=O)C(C)C)cc1)C(C)C (some centres unmarked) [Compound 94]
IC50 (NTSR1 scrambled compound): 52.5 nM

COc1cc2cc(c1Cl)N(C)C(=O)C[C@H](OC(=O)[C@H](C)N(C)C(=O)CCSC1CC(=O)N(CCCNC(=O)CNC(=O)[C@H](CC(C)C)NC(=O)[C@H](Cc3ccccc3)NC(=O)CNC(=O)CCCCCN3C(=O)CC(SCCC(=O)NCCOCCOCCOCCOCCOCCOCCOCCOCCC(=O)NCCCC[C@H](NC(C)=O)C(=O)N4CCC[C@H]4C(=O)N(C)[C@@H](CCCNC(=N)N)C(=O)N[C@@H](CCCNC(=N)N)C(=O)N4CCC[C@H]4C(=O)N[C@@H](Cc4ccc(O)cc4)C(=O)N[C@H](C(=O)N[C@@H](CC(C)C)C(=O)O)C(C)(C)C)C3=O)C1=O)[C@]1(C)O[C@H]1[C@H](C)[C@@H]1C[C@@](O)(NC(=O)O1)[C@H](OC)/C=C/C=C(\C)C2 (some centres unmarked) [Compound 26]
IC50 (NTSR1 targeted compound): 5 nM

CCc1c2c(nc3ccc(O)cc13)-c1cc3c(c(=O)n1C2)COC(=O)[C@@]3(CC)OC(=O)CNC(=O)CNC(=O)[C@H](CC(C)C)NC(=O)[C@H](Cc1ccccc1)NC(=O)CNC(=O)CCCCCN1C(=O)CC(SC(C)(C)[C@H](NC(C)=O)C(=O)N2CCC[C@H]2C(=O)N[C@@H](CCCNC(=N)N)C(=O)N[C@@H](CCCNC(=N)N)C(=O)N2CCC[C@H]2C(=O)N[C@@H](Cc2ccc(O)cc2)C(=O)N[C@H](C(=O)N[C@@H](CC(C)C)C(=O)O)C(C)(C)C)C1=O (stereo partly drawn) [Compound 65] (I: Ac-[Pen]PRRPY[Tle]L-OH / II: GFLGG-{SN38(20-O)}; linker I:1-II:N via Hexanoyl(6-succinimido-3yl))
IC50 (NTSR1 targeted compound): 800 nM

CO[C@H]1C(=O)[C@]2(C)[C@@H](OC)C[C@H]3OC[C@@]3(OC(C)=O)[C@H]2[C@H](OC(=O)c2ccccc2)[C@]2(O)C[C@H](OC(=O)[C@H](OC(=O)N(C)CCN(C)C(=O)OCc3ccc(NC(=O)[C@H](CCCNC(N)=O)NC(=O)[C@@H](NC(=O)CCCCCN4C(=O)CC(SC(C)(C)[C@H](NC(C)=O)C(=O)N5CCC[C@H]5C(=O)N[C@@H](CCCNC(=N)N)C(=O)N(C)[C@@H](CCCNC(=N)N)C(=O)N5CCC[C@H]5C(=O)N[C@H](Cc5ccc(O)cc5)C(=O)N[C@H](C(=O)N[C@@H](CC(C)C)C(=O)O)C(C)(C)C)C4=O)C(C)C)cc3)[C@@H](NC(=O)OC(C)(C)C)c3ccccc3)C(C)=C1C2(C)C (some centres unmarked) [Compound 7]
IC50 (NTSR1 targeted compound): 2000 nM

CCc1c2c(nc3ccc(O)cc13)-c1cc3c(c(=O)n1C2)COC(=O)[C@@]3(CC)OC(=O)OCc1ccc(NC(=O)[C@H](CCCNC(N)=O)NC(=O)[C@@H](NC(=O)CCCCCN2C(=O)CC(SC(C)(C)[C@H](NC(C)=O)C(=O)N3CCC[C@H]3C(=O)N[C@@H](CC(C)C)C(=O)N3CCC[C@H]3C(=O)N[C@@H](CCCNC(=N)N)C(=O)N[C@H](C(=O)N[C@@H](CCCNC(=N)N)C(=O)N[C@@H](Cc3ccc(O)cc3)C(=O)O)C(C)(C)C)C2=O)C(C)C)cc1 (some centres unmarked) [Compound 98]
IC50 (NTSR1 scrambled compound): 61 nM

CC[C@H](C)[C@@H]([C@@H](CC(=O)N1CCC[C@H]1[C@H](OC)[C@@H](C)C(=O)N[C@H](C)[C@@H](O)c1ccccc1)OC)N(C)C(=O)[C@@H](NC(=O)[C@H](C(C)C)N(C)C(=O)OCc1ccc(NC(=O)[C@H](CCCNC(N)=O)NC(=O)[C@@H](NC(=O)CCCCCN2C(=O)CC(SCCC(=O)NCCOCCOCCOCCOCCC(=O)NCCCC[C@H](NC(C)=O)C(=O)N3CCC[C@H]3C(=O)N[C@@H](CC(C)C)C(=O)N3CCC[C@H]3C(=O)N(C)[C@@H](CCCNC(=N)N)C(=O)N[C@H](C(=O)N[C@@H](CCCNC(=N)N)C(=O)N[C@@H](Cc3ccc(O)cc3)C(=O)O)C(C)(C)C)C2=O)C(C)C)cc1)C(C)C (some centres unmarked) [Compound 95]
IC50 (NTSR1 scrambled compound): 60.1 nM

CCc1c2c(nc3ccc(O)cc13)-c1cc3c(c(=O)n1C2)COC(=O)[C@@]3(CC)OC(=O)CNC(=O)CNC(=O)[C@H](CC(C)C)NC(=O)[C@H](Cc1ccccc1)NC(=O)CNC(=O)CCCCCN1C(=O)CC(SC(C)(C)[C@H](NC(C)=O)C(=O)N2CCC[C@H]2C(=O)N[C@@H](CCCNC(=N)N)C(=O)N(C)[C@@H](CCCNC(=N)N)C(=O)N2CCC[C@H]2C(=O)N[C@@H](Cc2ccc(O)cc2)C(=O)N[C@H](C(=O)N[C@@H](CC(C)C)C(=O)O)C(C)(C)C)C1=O (stereo partly drawn) [Compound 66] (I: Ac-[Pen]PR[NMeR]PY[Tle]L-OH / II: GFLGG-{SN38(20-O)}; linker I:1-II:N via Hexanoyl(6-succinimido-3yl))
IC50 (NTSR1 targeted compound): 694 nM

CCc1c2c(nc3ccc(O)cc13)-c1cc3c(c(=O)n1C2)COC(=O)[C@@]3(CC)OC(=O)CNC(=O)CNC(=O)[C@H](CC(C)C)NC(=O)[C@H](Cc1ccccc1)NC(=O)CNC(=O)CCCCCN1C(=O)CC(SC(C)(C)[C@H](NC(C)=O)C(=O)N2CCC[C@H]2C(=O)N[C@@H](CCCCN)C(=O)N[C@@H](CCCNC(=N)N)C(=O)N2CCC[C@H]2C(=O)N[C@@H](Cc2ccc(O)cc2)C(=O)N[C@H](C(=O)N[C@@H](CC(C)C)C(=O)O)C(C)(C)C)C1=O (stereo partly drawn) [Compound 68] (I: Ac-[Pen]PKRPY[Tle]L-OH / II: GFLGG-{SN38(20-O)}; linker I:1-II:N via Hexanoyl(6-succinimido-3yl))
IC50 (NTSR1 targeted compound): 800 nM

CC[C@H](C)[C@@H]([C@@H](CC(=O)N1CCC[C@H]1[C@H](OC)[C@@H](C)C(=O)N[C@H](C)[C@@H](O)c1ccccc1)OC)N(C)C(=O)[C@@H](NC(=O)[C@H](C(C)C)N(C)C(=O)OCc1ccc(NC(=O)[C@H](CCCNC(N)=O)CC(=O)[C@@H](NC(=O)CCCCCN2C(=O)CC(SCCC(=O)NCCOCCOCCOCCOCCOCCOCCOCCOCCC(=O)NCCCC[C@H](NC(C)=O)C(=O)N3CCC[C@H]3C(=O)N[C@@H](CC(C)C)C(=O)N3CCC[C@H]3C(=O)N(C)[C@@H](CCCNC(=N)N)C(=O)N[C@H](C(=O)N[C@@H](CCCNC(=N)N)C(=O)N[C@@H](Cc3ccc(O)cc3)C(=O)O)C(C)(C)C)C2=O)C(C)C)cc1)C(C)C (some centres unmarked) [Compound 96]
IC50 (NTSR1 scrambled compound): 76.7 nM

COc1cc2cc(c1Cl)N(C)C(=O)C[C@H](OC(=O)[C@H](C)N(C)C(=O)CCSC1CC(=O)N(CCCNC(=O)CNC(=O)[C@H](CC(C)C)NC(=O)[C@H](Cc3ccccc3)NC(=O)CNC(=O)CCCCCN3C(=O)CC(SCCC(=O)NCCOCCOCCC(=O)NCCCC[C@H](NC(C)=O)C(=O)N4CCC[C@H]4C(=O)N(C)[C@@H](CCCNC(=N)N)C(=O)N[C@@H](CCCNC(=N)N)C(=O)N4CCC[C@H]4C(=O)N[C@@H](Cc4ccc(O)cc4)C(=O)N[C@H](C(=O)N[C@@H](CC(C)C)C(=O)O)C(C)(C)C)C3=O)C1=O)[C@]1(C)O[C@H]1[C@H](C)[C@@H]1C[C@@](O)(NC(=O)O1)[C@H](OC)/C=C/C=C(\C)C2 (some centres unmarked) [Compound 24]
IC50 (NTSR1 targeted compound): 2 nM
